System: ANKA strain of P. berghei
Assay: single dose STI in vivo screen in infected mice
Parameters: species or system Plasmodium berghei
Details: for Activity (%) 3 mg/kg SSV po / Activity (%) 10 mg/kg SSV po / Activity (%) po / Activity (%) sc / Activity (%) SSVpo: percent reduction in parasitemia day 3 post-infection; for Activity (%) 3 mg/kg SSV po / Survival (days) 3 mg/kg SSV po: single 3 mg/kg po in SSV; for Activity (%) 10 mg/kg SSV po / Survival (days) 10 mg/kg SSV po: single 10 mg/kg po in SSV; for Activity (%) po / Survival (days) po: single 10 mg/kg po in 3% ethanol and 7% Tween 80; for Activity (%) po / Activity (%) sc / Activity (%) SSVpo: mice; for Activity (%) sc / Survival (days) sc: single 10 mg/kg sc in 3% ethanol and 7% Tween 80; for Survival (days) po / Survival (days) sc / Survival (days) SSVpo: untreated control 5.6 ± 0.3; for Activity (%) SSVpo: single po dose in standard suspending vehicle (SSV); for Survival (days) SSVpo: single po dose in SSV
Method: In the single dose STI in vivo screen, Moro SPF or NMRI mice infected with the ANKA strain of P. berghei (groups of 3-5 mice) were treated on day one post-infection with trioxolanes dissolved or suspended in 3% ethanol and 7% Tween 80. […] SSV consists of 0.5% w/v CMC, 0.5% v/v benzyl alcohol, 0.4% v/v Tween 80, and 0.9% w/v sodium chloride in water. Antimalarial activity was measured by percent reduction in parasitemia on day three post-infection and survival times compared to an untreated control group. Survival to day 30 post-infection is considered to be a cure. […] Other factors influencing antimalarial activity include the stability of carbon radicals formed by β-scission subsequent to the initial electron transfer to the peroxide bond and the influence of steric effects remote from the peroxide bond on the interactions between carbon radicals and potential drug targets.

| SMILES | Activity (%) 3 mg/kg SSV po [%] | Activity (%) 10 mg/kg SSV po [%] | Survival (days) 10 mg/kg SSV po [days] | Activity (%) po | Activity (%) sc | also measured |
| --- | --- | --- | --- | --- | --- | --- |
| Cn1nnnc1SC[C@H]1CC[C@]2(CC1)OO[C@]1(O2)C2CC3CC(C2)CC1C3 [OZ331] | 66 | 99.47 | 9.0 |  |  |  |
| O=CN1CCN(C[C@H]2CC[C@]3(CC2)OO[C@]2(O3)C3CC4CC(C3)CC2C4)CC1 [OZ303] | 69 | 99.01 | 8.6 |  |  |  |
| N=C(N)NC(=O)C[C@H]1CC[C@]2(CC1)OO[C@]1(O2)C2CC3CC(C2)CC1C3 [OZ341] | 32 | 97 | 8.0 |  |  |  |
| NC(=O)c1cncn1C[C@H]1CC[C@]2(CC1)OO[C@]1(O2)C2CC3CC(C2)CC1C3 [OZ321] | 64 | 99.77 | 14.0 |  |  |  |
| O=C(NC[C@H]1CC[C@]2(CC1)OO[C@]1(O2)C2CC3CC(C2)CC1C3)[C@@H]1CCCN1 [OZ337] | 97 | 99.92 | 8.6 |  |  | Survival (days) 3 mg/kg SSV po: 11.6 days |
| CCOC(=O)CCC(=O)N1CCC2(CC1)OOC1(O2)C2CC3CC(C2)CC1C3 (stereo not shown) [OZ53] |  |  |  | 9% | 58% | Survival (days) po: 6.0 days; Survival (days) sc: 6.3 days |
| N[C@H]1CC[C@]2(CC1)OOC1(O2)C2CC3CC(C2)CC1C3 (stereo partly shown) [OZ137] |  |  |  | 0% | 61% | Activity (%) SSVpo: 6%; Survival (days) SSVpo: 6.3 days |
| O=C(Nc1ccc(Cl)cc1)N1CCC2(CC1)OOC1(O2)C2CC3CC(C2)CC1C3 (stereo not shown) [OZ192] |  |  |  | 38% | 99.98% | Activity (%) SSVpo: 45%; Survival (days) po: 6.0 days; Survival (days) sc: 13.7 days; Survival (days) SSVpo: 7.0 days |
| O=C(NC[C@H]1CC[C@]2(CC1)OO[C@]1(O2)C2CC3CC(C2)CC1C3)N1CCOCC1 [OZ272] | 49 | 98 |  |  |  |  |
| OC[C@H]1CC[C@]2(CC1)OOC1(O2)C2CC3CC(C2)CC1C3 (stereo partly shown) [OZ119] |  |  |  |  |  | Survival (days) SSVpo: 8.0 days |
| CS(=O)(=O)N(CC(N)=O)C[C@H]1CC[C@]2(CC1)OO[C@]1(O2)C2CC3CC(C2)CC1C3 [OZ308] | 30 | 86 | 7.8 |  |  |  |
| FC(F)(F)c1ccc(C2CCC3(CC2)OOC2(O3)C3CC4CC(C3)CC2C4)cc1 (stereo not shown) [OZ48] |  |  |  | 99.8% | 42% | Survival (days) po: 8.7 days; Survival (days) sc: 6.3 days |
| O=C(Nc1ccccc1)N1CCC2(CC1)OOC1(O2)C2CC3CC(C2)CC1C3 (stereo not shown) [OZ102] |  |  |  | 92% | 99.97% | Activity (%) SSVpo: 73%; Survival (days) po: 7.0 days; Survival (days) sc: 19.7 days; Survival (days) SSVpo: 6.7 days |
| c1cncc(NC[C@H]2CC[C@]3(CC2)OO[C@]2(O3)C3CC4CC(C3)CC2C4)c1 [OZ293] | 77 |  | 8.8 |  |  |  |
| O=C(CNC(=O)c1cccnc1)NC[C@H]1CC[C@]2(CC1)OO[C@]1(O2)C2CC3CC(C2)CC1C3 [OZ316] | 7 | 69 | 10.0 |  |  |  |
| CS(=O)(=O)N1CCN(C(=O)C[C@H]2CC[C@]3(CC2)OO[C@]2(O3)C3CC4CC(C3)CC2C4)CC1 [OZ344] | 0 | 17 | 7.8 |  |  | Survival (days) 3 mg/kg SSV po: 7.4 days |
| O=C1c2ccccc2C(=O)N1C[C@H]1CC[C@]2(CC1)OOC1(O2)C2CC3CC(C2)CC1C3 (stereo partly shown) [OZ146] |  |  |  | 62% | 91% | Activity (%) SSVpo: 40%; Survival (days) SSVpo: 6.3 days |

| SMILES | Activity (%) 3 mg/kg SSV po [%] | Activity (%) 10 mg/kg SSV po [%] | Survival (days) 10 mg/kg SSV po [days] | Activity (%) po | Activity (%) sc | also measured |
| --- | --- | --- | --- | --- | --- | --- |
| NS(=O)(=O)c1ccc(NC[C@H]2CC[C@]3(CC2)OO[C@]2(O3)C3CC4CC(C3)CC2C4)cc1 [OZ298] | 98 | 99.95 | 9.4 |  |  |  |
| Cn1nnnc1S(=O)(=O)C[C@H]1CC[C@]2(CC1)OO[C@]1(O2)C2CC3CC(C2)CC1C3 [OZ332] | 0 | 8 |  |  |  |  |
| c1c[nH]c(C[C@H]2CC[C@]3(CC2)OO[C@]2(O3)C3CC4CC(C3)CC2C4)n1 [OZ355] | 0 | 71 | 7.0 |  |  | Survival (days) 3 mg/kg SSV po: 6.2 days |
| O=S(=O)(C[C@H]1CC[C@]2(CC1)OO[C@]1(O2)C2CC3CC(C2)CC1C3)c1cccc[n+]1[O-] [OZ324] |  | 60 |  |  |  |  |
| O=C(NC[C@H]1CC[C@]2(CC1)OO[C@]1(O2)C2CC3CC(C2)CC1C3)c1ccccn1 [OZ304] | 61 | 98 | 8.2 |  |  |  |
| O=C(c1ccncc1)N1CCC2(CC1)OOC1(O2)C2CC3CC(C2)CC1C3 (stereo not shown) [OZ100] |  |  |  | 61% | 80% | Activity (%) SSVpo: 36%; Survival (days) po: 6.7 days; Survival (days) sc: 7.0 days; Survival (days) SSVpo: 6.3 days |
| CCOC(=O)CCC1CCCCC12OOC1(O2)C2CC3CC(C2)CC1C3 (stereo not shown) [OZ08] |  |  |  | 99.7% | 99.9% | Survival (days) po: 8.0 days; Survival (days) sc: 9.7 days |
| O=C(N1CCOCC1)N1CCC2(CC1)OOC1(O2)C2CC3CC(C2)CC1C3 (stereo not shown) [OZ188] |  |  |  | 93% | 99.87% | Activity (%) SSVpo: 98%; Survival (days) po: 8.7 days; Survival (days) sc: 9.0 days; Survival (days) SSVpo: 10.0 days |
| CS(=O)(=O)CC(=O)NC[C@H]1CC[C@]2(CC1)OO[C@]1(O2)C2CC3CC(C2)CC1C3 [OZ350] | 69 | 99.17 | 10.4 |  |  | Survival (days) 3 mg/kg SSV po: 9.6 days |
| O=C(NC[C@H]1CC[C@]2(CC1)OOC1(O2)C2CC3CC(C2)CC1C3)c1ccc(O)nc1 (stereo partly shown) [OZ282] | 53 |  | 8.3 |  |  |  |
| N[C@H]1CC[C@]2(CC1)OO[C@]1(O2)C2CC3CC(C2)CC1C3 [OZ362] | 58 | 98 | 9.8 |  |  | Survival (days) 3 mg/kg SSV po: 7.0 days |
| O=C1c2ccccc2C(=O)N1[C@H]1CC[C@]2(CC1)OOC1(O2)C2CC3CC(C2)CC1C3 (stereo partly shown) [OZ136] |  |  |  | 0/0/0% | 0/0/0% | Activity (%) SSVpo: 0/0/0%; Survival (days) po: 6.0/6.0/6.0 days; Survival (days) sc: 6.0/6.0/6.0 days; Survival (days) SSVpo: 6.0/6.0/6.0 days |
| O=C(NC[C@H]1CC[C@]2(CC1)OO[C@]1(O2)C2CC3CC(C2)CC1C3)c1cnccn1 [OZ356] | 87 | 99.64 | 8.6 |  |  | Survival (days) 3 mg/kg SSV po: 8.0 days |
| O=C(C[C@H]1CC[C@]2(CC1)OO[C@]1(O2)C2CC3CC(C2)CC1C3)N1CCN(c2ncccn2)CC1 [OZ314] | 11 | 13 |  |  |  |  |
| Nc1ncccc1C(=O)NC[C@H]1CC[C@]2(CC1)OOC1(O2)C2CC3CC(C2)CC1C3 (stereo partly shown) [OZ284] | 61 | 97 | 9.0 |  |  |  |
| CCOC(=O)CCNCC1CCC2(CC1)OOC1(O2)C2CC3CC(C2)CC1C3.Cc1ccc(S(=O)(=O)O)cc1 (stereo not shown) [OZ318] | 29 | 88 |  |  |  |  |
